Data as given in PubChem BioAssay (NCI).
Values after ≈ are worked out from the molar mass of the structure shown.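 The compound was tested at five concentrations on cells cultured in 96-well plates, with a 48-hour exposure period. Abbreviation: GI50, concentration required for 50% inhibition of growth. The concentration for full growth arrest is given as TGI.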

What was measured:
Assay in all cases: DTP human tumour cell line panel, 48 h; in the data active means GI50 below about 0.43 µM; inactive means the rest
SK-OV-3 ovarian = system: SK-OV-3 ovarian
SF-539 CNS = system: SF-539 CNS
T-47D breast = system: T-47D breast
HCT-116 colon = system: HCT-116 colon
HS 578T breast = system: HS 578T breast
KM12 colon = system: KM12 colon
M14 melanoma = system: M14 melanoma
786-0 renal = system: 786-0 renal
SF-295 CNS = system: SF-295 CNS
UACC-257 melanoma = system: UACC-257 melanoma
SN12C renal = system: SN12C renal
BT-549 breast = system: BT-549 breast
SNB-75 CNS = system: SNB-75 CNS
SW-620 colon = system: SW-620 colon
TK-10 renal = system: TK-10 renal
OVCAR-4 ovarian = system: OVCAR-4 ovarian
EKVX NSCLC = system: EKVX NSCLC
COLO 205 colon = system: COLO 205 colon
K-562 leukemia = system: K-562 leukemia
NCI-H522 lung = system: NCI-H522 lung
SK-MEL-28 melanoma = system: SK-MEL-28 melanoma
MDA-N = system: MDA-N
MALME-3M melanoma = system: MALME-3M melanoma
ACHN renal = system: ACHN renal
MOLT-4 leukemia = system: MOLT-4 leukemia
RXF 393 renal = system: RXF 393 renal
UACC-62 melanoma = system: UACC-62 melanoma
HT29 colon = system: HT29 colon
MDA-MB-435 = system: MDA-MB-435
HOP-62 NSCLC = system: HOP-62 NSCLC
OVCAR-3 ovarian = system: OVCAR-3 ovarian
MCF7 breast = system: MCF7 breast
SNB-19 CNS = system: SNB-19 CNS
HCT-15 colon = system: HCT-15 colon
DU-145 prostate = system: DU-145 prostate
UO-31 renal = system: UO-31 renal
OVCAR-8 ovarian = system: OVCAR-8 ovarian
U251 CNS = system: U251 CNS
RPMI-8226 leukemia = system: RPMI-8226 leukemia
NCI-H226 lung = system: NCI-H226 lung
IGROV1 ovarian = system: IGROV1 ovarian
SK-MEL-2 melanoma = system: SK-MEL-2 melanoma
SK-MEL-5 melanoma = system: SK-MEL-5 melanoma
SR leukemia = system: SR leukemia
A498 renal = system: A498 renal
CAKI-1 renal = system: CAKI-1 renal
CCRF-CEM leukemia = system: CCRF-CEM leukemia
PC-3 prostate = system: PC-3 prostate
OVCAR-5 ovarian = system: OVCAR-5 ovarian
MDA-MB-231 breast = system: MDA-MB-231 breast
LOX IMVI melanoma = system: LOX IMVI melanoma
HL-60(TB) leukemia = system: HL-60(TB) leukemia
NCI/ADR-RES ovarian = system: NCI/ADR-RES ovarian
NCI-H460 lung = system: NCI-H460 lung
NCI-H23 lung = system: NCI-H23 lung
HOP-92 NSCLC = system: HOP-92 NSCLC
SF-268 CNS = system: SF-268 CNS
A549 NSCLC = system: A549 NSCLC

COCCOC(=O)CCn1cc(F)c(=O)[nH]c1=O
inactive: GI50 (SK-OV-3 ovarian) 37.1 µg/mL (≈ 142 µM) | GI50 (SF-539 CNS) 7.42 µg/mL (≈ 28.5 µM) | GI50 (T-47D breast) 73.4 µg/mL (≈ 282 µM) | GI50 (HCT-116 colon) 4.54 µg/mL (≈ 17.4 µM) | GI50 (HS 578T breast) > 150 µg/mL | GI50 (KM12 colon) 5.93 µg/mL (≈ 22.8 µM) | GI50 (M14 melanoma) 8.38 µg/mL (≈ 32.2 µM) | GI50 (786-0 renal) 8.12 µg/mL (≈ 31.2 µM) | GI50 (SF-295 CNS) 33.2 µg/mL (≈ 127 µM) | GI50 (UACC-257 melanoma) 26.5 µg/mL (≈ 102 µM) | GI50 (SN12C renal) 7.8 µg/mL (≈ 30 µM) | GI50 (BT-549 breast) 16.2 µg/mL (≈ 62.1 µM) | GI50 (SNB-75 CNS) 88.4 µg/mL (≈ 340 µM) | GI50 (SW-620 colon) 26.9 µg/mL (≈ 103 µM) | GI50 (TK-10 renal) 6.77 µg/mL (≈ 26 µM) | GI50 (OVCAR-4 ovarian) 20.4 µg/mL (≈ 78.3 µM) | GI50 (EKVX NSCLC) 57.8 µg/mL (≈ 222 µM) | GI50 (COLO 205 colon) 4.75 µg/mL (≈ 18.3 µM) | GI50 (K-562 leukemia) 21.3 µg/mL (≈ 81.9 µM) | GI50 (NCI-H522 lung) 131 µg/mL (≈ 502 µM) | GI50 (SK-MEL-28 melanoma) 31.7 µg/mL (≈ 122 µM) | GI50 (MDA-N) 2.29 µg/mL (≈ 8.82 µM) | GI50 (MALME-3M melanoma) > 150 µg/mL | GI50 (ACHN renal) 8.67 µg/mL (≈ 33.3 µM) | GI50 (MOLT-4 leukemia) 19.7 µg/mL (≈ 75.8 µM) | GI50 (RXF 393 renal) 13.8 µg/mL (≈ 53.1 µM) | GI50 (UACC-62 melanoma) 11 µg/mL (≈ 42.4 µM) | GI50 (HT29 colon) 4.55 µg/mL (≈ 17.5 µM) | GI50 (MDA-MB-435) 5.67 µg/mL (≈ 21.8 µM) | GI50 (HOP-62 NSCLC) 17.3 µg/mL (≈ 66.6 µM) | GI50 (OVCAR-3 ovarian) 5.79 µg/mL (≈ 22.2 µM) | GI50 (MCF7 breast) 1.13 µg/mL (≈ 4.34 µM) | GI50 (SNB-19 CNS) 41.6 µg/mL (≈ 160 µM) | GI50 (HCT-15 colon) 6.72 µg/mL (≈ 25.8 µM) | GI50 (DU-145 prostate) 5.57 µg/mL (≈ 21.4 µM) | GI50 (UO-31 renal) 1.82 µg/mL (≈ 6.98 µM) | GI50 (OVCAR-8 ovarian) 32 µg/mL (≈ 123 µM) | GI50 (U251 CNS) 51 µg/mL (≈ 196 µM) | GI50 (RPMI-8226 leukemia) 13.8 µg/mL (≈ 52.9 µM) | GI50 (NCI-H226 lung) 119 µg/mL (≈ 459 µM) | GI50 (IGROV1 ovarian) 7.36 µg/mL (≈ 28.3 µM) | GI50 (SK-MEL-2 melanoma) > 150 µg/mL | GI50 (SK-MEL-5 melanoma) 20.4 µg/mL (≈ 78.5 µM) | GI50 (SR leukemia) 2.97 µg/mL (≈ 11.4 µM) | GI50 (A498 renal) 0.989 µg/mL (≈ 3.8 µM) | GI50 (CAKI-1 renal) 4.07 µg/mL (≈ 15.6 µM) | GI50 (CCRF-CEM leukemia) 16 µg/mL (≈ 61.3 µM) | GI50 (PC-3 prostate) 108 µg/mL (≈ 416 µM) | GI50 (OVCAR-5 ovarian) 122 µg/mL (≈ 468 µM) | GI50 (MDA-MB-231 breast) > 150 µg/mL | GI50 (LOX IMVI melanoma) 10.4 µg/mL (≈ 40.1 µM) | GI50 (HL-60(TB) leukemia) 13.6 µg/mL (≈ 52.2 µM) | GI50 (NCI/ADR-RES ovarian) 46.4 µg/mL (≈ 178 µM) | GI50 (NCI-H460 lung) 0.821 µg/mL (≈ 3.15 µM) | GI50 (NCI-H23 lung) 17.2 µg/mL (≈ 65.9 µM) | GI50 (HOP-92 NSCLC) 77.6 µg/mL (≈ 298 µM) | GI50 (SF-268 CNS) 102 µg/mL (≈ 392 µM) | GI50 (A549 NSCLC) 1.79 µg/mL (≈ 6.9 µM)
> 150 µg/mL: TGI (SK-OV-3 ovarian) | TGI (SF-539 CNS) | TGI (T-47D breast) | TGI (HCT-116 colon) | TGI (HS 578T breast) | TGI (KM12 colon) | TGI (M14 melanoma) | TGI (786-0 renal) | TGI (SF-295 CNS) | TGI (UACC-257 melanoma) | TGI (SN12C renal) | TGI (BT-549 breast) | TGI (SNB-75 CNS) | TGI (SW-620 colon) | TGI (TK-10 renal) | TGI (OVCAR-4 ovarian) | TGI (EKVX NSCLC) | TGI (COLO 205 colon) | TGI (K-562 leukemia) | TGI (NCI-H522 lung) | TGI (SK-MEL-28 melanoma) | TGI (MDA-N) | TGI (MALME-3M melanoma) | TGI (ACHN renal) | TGI (MOLT-4 leukemia) | TGI (RXF 393 renal) | TGI (UACC-62 melanoma) | TGI (HT29 colon) | TGI (MDA-MB-435) | TGI (HOP-62 NSCLC) | TGI (OVCAR-3 ovarian) | TGI (MCF7 breast) | TGI (SNB-19 CNS) | TGI (HCT-15 colon) | TGI (DU-145 prostate) | TGI (UO-31 renal) | TGI (OVCAR-8 ovarian) | TGI (U251 CNS) | TGI (RPMI-8226 leukemia) | TGI (NCI-H226 lung) | TGI (IGROV1 ovarian) | TGI (SK-MEL-2 melanoma) | TGI (SK-MEL-5 melanoma) | TGI (SR leukemia) | TGI (A498 renal) | TGI (CAKI-1 renal) | TGI (CCRF-CEM leukemia) | TGI (PC-3 prostate) | TGI (OVCAR-5 ovarian) | TGI (MDA-MB-231 breast) | TGI (LOX IMVI melanoma) | TGI (HL-60(TB) leukemia) | TGI (NCI/ADR-RES ovarian) | TGI (NCI-H460 lung) | TGI (NCI-H23 lung) | TGI (HOP-92 NSCLC) | TGI (SF-268 CNS) | TGI (A549 NSCLC)
